Measured values published in the supplement of paper PMC13380429.

Experiments:
[1] = tested on: A549-ACE2 infected with SARS-CoV-2; assay: cell count relative to DMSO; higher = less toxic; details: 24 h
A549-ACE2 [2] = assay: drug-induced phospholipidosis relative to tamoxifen; higher = more phospholipidosis
[3] = tested on: A549-ACE2 infected with SARS-CoV-2; assay: SARS-CoV-2 infection rate relative to DMSO; higher = more infection; details: 24 h
Vero E6 [4] = assay: drug sensitivity score (DSS) for viability; higher = more toxic; extreme values may be limits of the assay; details: 72 h
U2OS [5] = assay: as above; details: 72 h
Calu-3 [6] = assay: as above; details: 72 h
Caco-2 [7] = assay: as above; details: 72 h
HepG2 [8] = assay: as above; details: 72 h
Vero E6 [9] = assay: cell viability relative to DMSO; higher = less toxic; details: 72 h
U2OS [10] = assay: as above; details: 72 h
Calu-3 [11] = assay: as above; details: 72 h
Caco-2 [12] = assay: as above; details: 72 h
HepG2 [13] = assay: as above; details: 72 h
Vero E6 [14] = assay: relative viability EC50 (midpoint between 100% and the lowest measured viability); higher = less toxic; details: 72 h
Calu-3 [15] = assay: as above; details: 72 h
Caco-2 [16] = assay: as above; details: 72 h
HepG2 [17] = assay: as above; details: 72 h
[18] = tested on: A549-ACE2 infected with SARS-CoV-2; assay: morphology score (similarity to uninfected cells); higher = more like uninfected cells; details: 24 h
U2OS [19] = assay: relative viability EC50 (midpoint between 100% and the lowest measured viability); higher = less toxic; details: 72 h
A549-ACE2 [20] = assay: phospholipidosis EC50; higher = less potent phospholipidosis inducer

CN(C)c1ccc(-c2nc3c(N4CCN(CC(=O)Nc5nccs5)CC4)c(Cl)cnc3[nH]2)cc1
Details	SARS-CoV-2 infection rate, [3] [%]	cell count, [1] [%]	cell viability, Caco-2 [12] [%]	cell viability, Calu-3 [11] [%]	cell viability, HepG2 [13] [%]	cell viability, U2OS [10] [%]	cell viability, Vero E6 [9] [%]	morphology score, [18]
1 nM	–	–	99.6	102	105	97.1	94.5	–
10 nM	–	–	103	95.7	105	90.9	97.6	–
100 nM	–	–	96.4	91.3	92	98	88.7	–
0.3 µM	94	101	–	–	–	–	–	0.26
1000 nM	–	–	94.7	109	99.9	89.3	95.8	–
3 µM	101	97	–	–	–	–	–	-0.1
10 µM	96	97	–	–	–	–	–	0.16
10000 nM	–	–	98.7	91.5	98.2	67.4	100	–
30 µM	65	83	–	–	–	–	–	0.47

drug-induced phospholipidosis [%], A549-ACE2 [2]
Details	0.3 µM	0.833333 µM	3.33333 µM	6.66667 µM	10 µM	30 µM
24 h	4.66	-0.19	5.5	0.89	5.75	7.19
48 h	6.88	1.34	2.05	1.71	1.43	6.09
72 h	3.52	-6.12	-1.19	0.0519	-2.06	6.76

Details	drug sensitivity score	relative viability EC50 [µM]
Caco-2 [7]	0	–
Caco-2 [16]	–	> 10
Calu-3 [6]	0	–
Calu-3 [15]	–	> 10
HepG2 [8]	0	–
HepG2 [17]	–	> 10
U2OS [5]	2.8	–
Vero E6 [4]	0	–
Vero E6 [14]	–	> 10

COc1cc(-n2cnc3cc(-c4ccc(Cl)cc4)sc3c2=O)ccc1OCCN1CCCC1
Details	SARS-CoV-2 infection rate [%]	cell count [%]	cell viability [%]	morphology score	phospholipidosis EC50 [µM]
A549-ACE2 [20], 24 h	–	–	–	–	12.9
A549-ACE2 [20], 48 h	–	–	–	–	16.7
A549-ACE2 [20], 72 h	–	–	–	–	21
Caco-2 [12], 1 nM	–	–	111	–	–
Caco-2 [12], 10 nM	–	–	88.4	–	–
Caco-2 [12], 100 nM	–	–	104	–	–
Caco-2 [12], 1000 nM	–	–	103	–	–
Caco-2 [12], 10000 nM	–	–	88.7	–	–
Calu-3 [11], 1 nM	–	–	102	–	–
Calu-3 [11], 10 nM	–	–	102	–	–
Calu-3 [11], 100 nM	–	–	100	–	–
Calu-3 [11], 1000 nM	–	–	101	–	–
Calu-3 [11], 10000 nM	–	–	89.3	–	–
HepG2 [13], 1 nM	–	–	108	–	–
HepG2 [13], 10 nM	–	–	108	–	–
HepG2 [13], 100 nM	–	–	108	–	–
HepG2 [13], 1000 nM	–	–	93.9	–	–
HepG2 [13], 10000 nM	–	–	73.2	–	–
U2OS [10], 1 nM	–	–	92.4	–	–
U2OS [10], 10 nM	–	–	95.9	–	–
U2OS [10], 100 nM	–	–	95.7	–	–
U2OS [10], 1000 nM	–	–	102	–	–
U2OS [10], 10000 nM	–	–	90.6	–	–
Vero E6 [9], 1 nM	–	–	110	–	–
Vero E6 [9], 10 nM	–	–	104	–	–
Vero E6 [9], 100 nM	–	–	107	–	–
Vero E6 [9], 1000 nM	–	–	93.4	–	–
Vero E6 [9], 10000 nM	–	–	93.6	–	–
[1], 0.3 µM	–	104	–	–	–
[1], 3 µM	–	116	–	–	–
[1], 10 µM	–	120	–	–	–
[1], 30 µM	–	120	–	–	–
[3], 0.3 µM	98	–	–	–	–
[3], 3 µM	73	–	–	–	–
[3], 10 µM	20	–	–	–	–
[3], 30 µM	18	–	–	–	–
[18], 0.3 µM	–	–	–	0.28	–
[18], 3 µM	–	–	–	0.6	–
[18], 10 µM	–	–	–	0.87	–
[18], 30 µM	–	–	–	0.67	–

drug-induced phospholipidosis [%], A549-ACE2 [2]
Details	0.3 µM	0.833333 µM	3.33333 µM	6.66667 µM	10 µM	30 µM
24 h	0.98	-0.51	19.1	56.7	87.1	172
48 h	1.08	-1.67	14.3	36.9	63.3	141
72 h	2.44	-3.52	9.91	23.8	43.5	111

Details	drug sensitivity score	relative viability EC50 [µM]
Caco-2 [7]	0	–
Caco-2 [16]	–	> 10
Calu-3 [6]	0	–
Calu-3 [15]	–	> 10
HepG2 [8]	2	–
U2OS [5]	0	–
U2OS [19]	–	> 10
Vero E6 [4]	0	–
Vero E6 [14]	–	> 10
